In US6482815B1 (priority 1999, dated 2002):
Where two headings read alike, the source gives them in different places.

Columns and labels:
NALM-6 [1] = experiment: cells; type: cell-based; details: Homo sapiens, NALM-6, read-out: NALM-6 IC50
MOLT-3 [2] = experiment: cells; type: cell-based; details: Homo sapiens, MOLT-3, read-out: MOLT-3 IC50
ALL1 = experiment: cells; type: cell-based; details: Homo sapiens, read-out: ALL1 IC50
RS4;11 = experiment: cells; type: cell-based; details: Homo sapiens, RS4-11, read-out: RS4;11 IC50
NALM-6 [3] = experiment: Anti-proliferative activity (colony counts), NALM-6; type: cell-based, human
Text: (§1) The dose-responsive anti-proliferative activity of various organic arsenic acid substituted compounds against leukemic cell lines (NALM-6 and MOLT-3) is shown below in Table 3. FIGS. 3A-3F show dose response curves in ALL1, NALM-6, and MOLT-3 cells.

MOLT-3 [4] = experiment: Anti-proliferative activity (colony counts), MOLT-3; type: cell-based, human
Text: as §1

NALM-6 [5] = experiment: In situ detection of apoptosis (nick-end-labeling, ApopTag), NALM-6; type: cell-based, human; details: NALM-6, WHI-P381 2 μg/ml, 36 hour incubation (FIG. 1B)
Experimental: (§2) Assay for apoptosis was performed by the in situ nick-end-labeling method using an ApopTag in situ detection kit (Oncor, Gaithersburg, Md.) according to the manufacturer's recommendations. Exponentially growing cells (NALM-6 and MOLT-3) were seeded in 6-well tissue culture plates at a density of 50×10^4 cells/well and cultured for 36 hours at 37° C. in a humidified 5% CO2 atmosphere. The supernatant culture medium was carefully aspirated and replaced with fresh medium alone or fresh medium containing WHI-P381 at a concentration of 2 μg/ml.
(§3) After a 36 hour incubation at 37° C. in a humidified 5% CO2 incubator, the supernatants were carefully aspirated and the cells were treated for 1-2 minutes with 0.1% trypsin. The detached cells were collected into a 15 ml centrifuge tube, washed with medium and pelleted by centrifugation at 1000 rpm for 5 minutes. Cells were resuspended in 50 μl of PBS, transferred to poly-L-lysine coated coverslips and allowed to attach for 15 minutes. The cells were washed once with PBS and incubated with equilibration buffer for 10 minutes at room temperature.
(§4) After removal of the equilibration buffer, cells were incubated for 1 hour at 37° C. with the reaction mixture containing terminal deoxynucleotidyl transferase (TdT) and digoxigenin-11-UTP for labeling of exposed 3′-hydroxyl ends of fragmented nuclear DNA. […]

MOLT-3 [6] = experiment: In situ detection of apoptosis (nick-end-labeling, ApopTag), MOLT-3; type: cell-based, human; details: MOLT-3, WHI-P381 2 μg/ml, 36 hour incubation (FIG. 1D)
Experimental: as §2, §3, §4

BT20 [7] = system: BT20
BT20 [8] = experiment: cells; details: Homo sapiens, BT-20, read-out: BT20 IC50
[9] = system: leukemic cell lines (NALM-6, MOLT-3, ALL1, RS4;11); experiment: cells; details: Homo sapiens, read-out: IC50 values in leukemic cell lines
primary leukemic cells = experiment: MTT cytotoxicity against primary leukemic cells; details: cells from 5 leukemia patients, FIGS. 4A-4E
NALM-6 cells = experiment: MTT cytotoxicity over 1-4 days versus arsenic trioxide, NALM-6; details: for IC50: Homo sapiens
[10] = NALM-6, concentration 0.1 (mM as printed)
[11] = NALM-6, concentration 1 (mM as printed)
[12] = NALM-6, concentration 10 (mM as printed)
[13] = NALM-6, concentration 100 (mM as printed)
[14] = MOLT-3, concentration 0.1 (mM as printed)
[15] = MOLT-3, concentration 1 (mM as printed)
[16] = MOLT-3, concentration 10 (mM as printed)
[17] = MOLT-3, concentration 100 (mM as printed)

## CSc1nccc(Nc2ccccc2[As](=O)(O)O)n1 [WHI-P381, 2-Methylthio4-(2′-phenylarsenic acid)-aminopyrimidine]
NALM-6 [1]
  IC50: < 1900 nM
MOLT-3 [2]
  IC50: < 1900 nM
ALL1
  IC50: < 1900 nM
RS4;11
  IC50: < 1900 nM
NALM-6 [3]; [10]
  % Inhibition: 100%
  Mean No. of Colonies/10^6 Cells: 0 Colonies/10^6 Cells
NALM-6 [3]; [11]
  % Inhibition: 100%
  Mean No. of Colonies/10^6 Cells: 0 Colonies/10^6 Cells
NALM-6 [3]; [12]
  % Inhibition: 100%
  Mean No. of Colonies/10^6 Cells: 0 Colonies/10^6 Cells
NALM-6 [3]; [13]
  % Inhibition: 100%
  Mean No. of Colonies/10^6 Cells: 0 Colonies/10^6 Cells
MOLT-3 [4]; [14]
  % Inhibition: 70.2%
  Mean No. of Colonies/10^6 Cells: 429(202, 656) Colonies/10^6 Cells
MOLT-3 [4]; [15]
  % Inhibition: 100%
  Mean No. of Colonies/10^6 Cells: 0 Colonies/10^6 Cells
MOLT-3 [4]; [16]
  % Inhibition: 100%
  Mean No. of Colonies/10^6 Cells: 0 Colonies/10^6 Cells
MOLT-3 [4]; [17]
  % Inhibition: 100%
  Mean No. of Colonies/10^6 Cells: 0 Colonies/10^6 Cells
NALM-6 [5]
  apoptosis: fluorescence versus untreated cells: much greater Fluorescence
MOLT-3 [6]
  apoptosis: fluorescence versus untreated cells: much greater Fluorescence
other
  melting point: 225 to 228 °C
BT20 [7]
  cytotoxic against the breast cancer cell line BT20 (in words): cytotoxic
BT20 [8]
  IC50: 17300 nM
[9]
  IC50: ≤ 1900 nM
Primary leukemic cells
  cytotoxic activity against primary leukemic cells (in words): susceptible to the cytotoxic effects
NALM-6 cells; NALM-6, 24 h, read-out: Cytotoxicity against NALM-6 cells IC50, Day 1
  IC50: 2030 nM
NALM-6 cells; NALM-6, 48 h, read-out: Cytotoxicity against NALM-6 cells IC50, Day 2
  IC50: 850 nM
NALM-6 cells; NALM-6, 72 h, read-out: Cytotoxicity against NALM-6 cells IC50, Day 3
  IC50: 700 nM
NALM-6 cells; NALM-6, 96 h, read-out: Cytotoxicity against NALM-6 cells IC50, Day 4
  IC50: 680 nM
NALM-6 cells; NALM-6, 0.07 μM to 5 μM, 1-4 days, FIGS. 2A-2D
  cytotoxicity compared with arsenic trioxide (in words): more cytotoxic than arsenic trioxide
